The numbers were not newly measured in patent US10456366B2, “Composition and methods for tissue regeneration” (Chiou Consulting, Inc., priority 2017, dated 2019), which cites them from elsewhere.

The subject of one series is rats. Conditions: water containing 10% of PG, two years.
Another series relates to dogs. Conditions: food containing 8% of PG, two years.

Regarding `CC(O)CO` (centres unmarked) [PG, propylene glycol], the “adverse effects on feeding” value in the series on rats and in the series on dogs was “no adverse effects” throughout.
